How the values were obtained:
[1] = biological target: T1, GluN1/GluN2A receptors (Rattus norvegicus, UniProt Q00959); assay: Least squares fitting of kinetic model to macroscopic currents from excised outside‐out patches (1 mM or 3 μM glutamate for 1 s); format: cell-based; settings: macroscopic fit
T1 construct: expressed in transfected cells; host or cells: HEK 293 cells
Method: (§1) Cells were transfected using FuGENE 6 (Roche Diagnostics, Basel, Switzerland) with cDNA encoding green fluorescent protein (GFP), wild type GluN1‐1a (GenBank accession numbers U11418 and U08261; hereafter GluN1), and GluN2A (D13211) and GluN2B (U11419) at a ratio of 5:1:1 (GFP:GluN1:GluN2); total cDNA was 0.2 mg ml^−1. All rat NMDA receptor subunit cDNAs were provided by Drs Heinemann (Salk Institute) and Nakanishi (Kyoto University). After transfection, the HEK cells were incubated for 12–24 h (timed to optimize observation of patches with a single active channel) in media supplemented with D,L‐2‐amino‐5‐phosphonovalerate (DL‐AP‐5) and 7‐chlorokynurenic acid (both at 200 μM) prior to patch clamp recordings.

[2] = biological target: T2, GluN1/GluN2AC1/GluN2BC2 triheteromeric receptors (Rattus norvegicus, UniProt P35439+Q00959+Q00960, A876H/F846L/G856D/H848F/K857R/M851T/M860L/Q845K/V861L); set-up: method as in Hatton & Paoletti, 2005; Hansen et al. 2014; settings: 3 μM ifenprodil; ref Hatton & Paoletti, 2005; Hansen et al. 2014; cited from earlier work
T2 construct: expressed in transfected cells; host or cells: HEK 293 cells

[3] = tested on: GluN2AC1‐P552R/GluN2BC2‐P553R triheteromeric receptors; assay: Whole cell current recordings, ifenprodil block of peak current in transfected HEK cells; format: cell-based, rat; settings: 3 μM ifenprodil; n = 9
Method: as §1
(§2) All GluN2 cDNAs used for whole cell current recordings encoded a fusion protein containing the GluN2A C‐terminal domain fused to coiled‐coil C1 and C2 peptide tags followed by an endoplasmic reticulum (ER) retention signal fused in frame to the C‐terminal. This allowed control of the stoichiometry of GluN2 in surface receptors, as previously described (Hansen et al. 2014). The vector containing GluN1 also independently expressed GFP and was provided by Dr Kasper Hansen (University of Montana). […]

[4] = biological target: T3, GluN2AC1‐P552R/GluN2BC2 triheteromeric receptors (Rattus norvegicus, UniProt P35439+Q00959+Q00960, A876H/F846L/G856D/H848F/K857R/M851T/M860L/Q845K/V861L); assay: as above; format: cell-based; settings: 3 μM ifenprodil; n = 9
T3 construct: expressed in transfected cells; host or cells: HEK 293 cells
Method: as §1, §2

[5] = biological target: T2, GluN1/GluN2AC1/GluN2BC2 triheteromeric receptors; assay: Whole cell current recordings, ifenprodil block of peak current response to glutamate plus glycine in transfected HEK cells; format: cell-based; settings: 3 μM ifenprodil
Method: as §1, §2

[6] = tested on: diheteromeric GluN1/GluN2BC2 receptors; set-up: method as in Hatton & Paoletti, 2005; Hansen et al. 2014; settings: 3 μM ifenprodil; ref Hatton & Paoletti, 2005; Hansen et al. 2014; cited from earlier work
[7] = model of Fig. A2 (opening only after all four pre‐gating steps)
[8] = model of Figs 5 and 6, saturating glycine (100 μM), pH 8.0

T1 sequence (Q00959 23-1464, other chains not shown): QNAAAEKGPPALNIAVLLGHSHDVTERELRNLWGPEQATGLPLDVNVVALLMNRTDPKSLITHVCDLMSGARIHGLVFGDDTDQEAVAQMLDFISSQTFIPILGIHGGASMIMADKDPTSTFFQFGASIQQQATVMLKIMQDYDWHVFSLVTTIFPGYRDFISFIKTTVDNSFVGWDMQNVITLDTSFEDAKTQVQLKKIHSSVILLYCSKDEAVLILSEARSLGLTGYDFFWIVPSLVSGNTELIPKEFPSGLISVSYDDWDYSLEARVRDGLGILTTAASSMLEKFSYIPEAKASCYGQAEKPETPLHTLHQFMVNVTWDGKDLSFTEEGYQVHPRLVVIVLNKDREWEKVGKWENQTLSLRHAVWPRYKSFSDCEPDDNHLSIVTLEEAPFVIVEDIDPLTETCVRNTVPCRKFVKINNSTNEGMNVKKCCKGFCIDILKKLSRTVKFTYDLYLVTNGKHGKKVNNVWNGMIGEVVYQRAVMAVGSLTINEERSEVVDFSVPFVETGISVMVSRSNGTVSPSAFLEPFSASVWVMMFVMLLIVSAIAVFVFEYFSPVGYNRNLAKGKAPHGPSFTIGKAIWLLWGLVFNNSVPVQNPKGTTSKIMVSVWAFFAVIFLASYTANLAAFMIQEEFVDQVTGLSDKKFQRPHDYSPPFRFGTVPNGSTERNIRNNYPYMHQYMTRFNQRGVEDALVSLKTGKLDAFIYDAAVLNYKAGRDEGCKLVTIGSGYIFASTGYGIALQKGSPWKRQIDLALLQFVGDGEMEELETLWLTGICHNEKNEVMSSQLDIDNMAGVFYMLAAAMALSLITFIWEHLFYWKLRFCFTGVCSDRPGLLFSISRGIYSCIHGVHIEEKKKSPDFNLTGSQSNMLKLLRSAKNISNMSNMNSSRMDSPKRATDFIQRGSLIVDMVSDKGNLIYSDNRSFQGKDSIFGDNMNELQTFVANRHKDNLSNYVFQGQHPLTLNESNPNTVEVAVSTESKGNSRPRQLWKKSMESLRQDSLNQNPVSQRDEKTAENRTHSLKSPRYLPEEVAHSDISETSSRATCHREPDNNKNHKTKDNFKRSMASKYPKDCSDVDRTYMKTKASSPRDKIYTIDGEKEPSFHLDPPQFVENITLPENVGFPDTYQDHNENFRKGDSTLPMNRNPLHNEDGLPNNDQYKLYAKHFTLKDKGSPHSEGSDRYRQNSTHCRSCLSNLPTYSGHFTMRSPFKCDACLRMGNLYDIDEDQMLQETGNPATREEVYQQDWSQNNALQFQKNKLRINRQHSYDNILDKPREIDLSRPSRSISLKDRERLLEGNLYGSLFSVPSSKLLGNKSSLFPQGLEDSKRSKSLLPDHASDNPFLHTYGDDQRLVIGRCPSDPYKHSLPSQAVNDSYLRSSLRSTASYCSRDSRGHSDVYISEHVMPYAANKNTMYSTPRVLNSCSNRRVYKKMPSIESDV
T2 sequence (Q00960+Q00959 fused with the stated changes, other chains not shown): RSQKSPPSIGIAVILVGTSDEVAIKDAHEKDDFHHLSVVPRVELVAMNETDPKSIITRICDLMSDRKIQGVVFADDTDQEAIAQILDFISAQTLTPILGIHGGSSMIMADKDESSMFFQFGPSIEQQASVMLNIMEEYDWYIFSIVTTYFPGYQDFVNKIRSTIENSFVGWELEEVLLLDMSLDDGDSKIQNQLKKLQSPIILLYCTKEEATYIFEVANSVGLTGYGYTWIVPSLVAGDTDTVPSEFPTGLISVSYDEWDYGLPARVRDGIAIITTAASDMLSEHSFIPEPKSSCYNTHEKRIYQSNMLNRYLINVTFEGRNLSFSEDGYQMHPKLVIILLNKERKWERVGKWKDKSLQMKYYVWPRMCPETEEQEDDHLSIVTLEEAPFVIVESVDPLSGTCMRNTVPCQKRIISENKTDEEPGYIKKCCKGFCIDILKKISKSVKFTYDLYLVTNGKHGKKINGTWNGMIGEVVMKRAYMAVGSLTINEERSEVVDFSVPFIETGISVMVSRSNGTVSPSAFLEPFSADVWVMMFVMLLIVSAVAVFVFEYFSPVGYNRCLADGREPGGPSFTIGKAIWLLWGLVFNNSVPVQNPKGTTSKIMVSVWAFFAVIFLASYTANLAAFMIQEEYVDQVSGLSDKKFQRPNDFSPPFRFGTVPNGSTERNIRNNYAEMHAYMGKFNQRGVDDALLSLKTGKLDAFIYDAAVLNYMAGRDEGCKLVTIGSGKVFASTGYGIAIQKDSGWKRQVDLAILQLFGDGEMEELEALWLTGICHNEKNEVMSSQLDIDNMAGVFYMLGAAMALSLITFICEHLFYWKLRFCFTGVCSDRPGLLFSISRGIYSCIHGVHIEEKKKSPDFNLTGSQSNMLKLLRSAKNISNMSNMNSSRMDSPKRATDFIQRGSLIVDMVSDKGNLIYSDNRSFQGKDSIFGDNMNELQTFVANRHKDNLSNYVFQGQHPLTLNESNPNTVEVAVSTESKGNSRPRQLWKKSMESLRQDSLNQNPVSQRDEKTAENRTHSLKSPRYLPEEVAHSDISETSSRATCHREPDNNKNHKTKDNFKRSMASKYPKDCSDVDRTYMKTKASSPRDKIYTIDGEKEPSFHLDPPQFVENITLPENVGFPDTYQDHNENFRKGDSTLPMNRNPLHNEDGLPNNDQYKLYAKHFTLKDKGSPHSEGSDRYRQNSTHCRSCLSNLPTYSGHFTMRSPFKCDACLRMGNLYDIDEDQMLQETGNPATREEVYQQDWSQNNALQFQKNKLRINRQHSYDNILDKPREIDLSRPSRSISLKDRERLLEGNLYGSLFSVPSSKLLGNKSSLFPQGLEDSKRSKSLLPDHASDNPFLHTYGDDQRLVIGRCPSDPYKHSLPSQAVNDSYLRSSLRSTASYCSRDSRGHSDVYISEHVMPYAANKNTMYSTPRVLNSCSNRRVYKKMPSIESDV
T3 sequence (Q00960+Q00959 fused with the stated changes, other chains not shown): as above

SMILES | glutamate association rate k +A [1, 7] | glutamate dissociation rate k −A [1, 7] | glutamate dissociation rate k −A [1, 8] | microscopic glutamate association rate k +A [1, 8] | expected reduction of triheteromeric peak current [2] | reduction of peak current [3] | reduction of peak current [4] | block of the current amplitude [5] | expected reduction of peak current [6]
N[C@@H](CCC(=O)O)C(=O)O [glutamate] | 1.3e+07 M⁻¹ s⁻¹ | 483 s⁻¹ | 65 s⁻¹ | 6.7e+06 M⁻¹ s⁻¹ | – | – | – | – | –
CC(C(O)c1ccc(O)cc1)N1CCC(Cc2ccccc2)CC1 (stereo not drawn) [ifenprodil] | – | – | – | – | ~30% | 43 ± 6.1% | 58 ± 5.5% | 38% | ~90%
